Assay results published in patent publication US20160151270A1, “Peptide-Based Compositions and Methods of Use” (Geoffrey Brooks Consultants LLC, priority 2014, published 2016).
Residues, ends and D or L forms follow the SMILES beside them.

How the values were obtained:
[1] = tested on: TGF-β; assay: TGF-β like activity of cytomodulin analogs; conditions: compared with TGF-β and cytomodulin
Excerpt: As first introduced in the present inventor's U.S. Pat. No. 5,780,436, which is hereby incorporated by reference in its entirety, using cytomudulin as a guide, two initial cytomodulin analogs, L-I-A-E-A-K (SEQ ID NO: 2) and L-I-A-P-E-A (SEQ ID NO: 3) were designed, synthesized, and tested. In both peptides, -V-A-, was replaced by -I-A- and the first two N-terminal amino acid sequence of cytomodulin was replaced with leucine. In SEQ ID NO: 2, glutamic acid is at position i+3 since it is the first side-chain after the β-bend structure. In SEQ ID NO: 3, proline is at position i+3.
Analogs of SEQ ID NO: 2 and SEQ ID NO: 3 were made to further probe the sequence requirements for TGF-β like activity. To that end, the following peptides were made:
SEQ ID NOs 4-6, which are minor variants of SEQ ID NO: 2, mimicked the biological activities of TGF-β and cytomodulin. […] Alternatively, all peptides with the sequences represented by SEQ ID NOs: 9-16 mimicked at least one biological activity of TGF-β to some degree.

[2] = safety testing of cosmetic grade cytomodulin as a topically administered ingredient
Excerpt: In particular, the heptapeptide TGF-β mimic, A-N-V-A-E-N-A (SEQ ID NO: 1), termed “cytomodulin,” has been examined and tested as an ingredient in compositions with the potential for improving the condition of skin upon application; a cosmetic grade cytomodulin was first synthesized according to U.S. Pat. No. 5,661,127 and subsequently tested to ensure both its efficacy and safety as a topically administered ingredient.

Compound | TGF-β like activity [1] | toxicity [2]
L-I-A-P-E-A (LIAPEA; TGF-beta mimic) [SEQ ID NO: 3, cytomodulin analog] | at least as much TGF-β like activity as cytomodulin | 
L-I-A-E-A-K (LIAEAK; TGF-beta mimic) [SEQ ID NO: 2, cytomodulin analog] | at least as much TGF-β like activity as cytomodulin | 
CC(C)[C@H](NC(=O)[C@H](CC(N)=O)NC(=O)[C@H](C)N)C(=O)N[C@@H](C)C(=O)N[C@@H](CCC(=O)O)C(=O)N[C@@H](CC(N)=O)C(=O)N[C@@H](C)C(=O)O [cytomodulin, A-N-V-A-E-N-A] (H-ANVAENA-OH) |  | completely non-toxic
